These results are taken from ChEMBL document CHEMBL5465560, “Selectivity Literature for EUbOPEN Chemogenomic Library” (2024).

For assay [1], the target named is T1, Serine/threonine-protein kinase Nek9 (Homo sapiens) (UniProt Q8TD19).
T1 sequence (whole entry): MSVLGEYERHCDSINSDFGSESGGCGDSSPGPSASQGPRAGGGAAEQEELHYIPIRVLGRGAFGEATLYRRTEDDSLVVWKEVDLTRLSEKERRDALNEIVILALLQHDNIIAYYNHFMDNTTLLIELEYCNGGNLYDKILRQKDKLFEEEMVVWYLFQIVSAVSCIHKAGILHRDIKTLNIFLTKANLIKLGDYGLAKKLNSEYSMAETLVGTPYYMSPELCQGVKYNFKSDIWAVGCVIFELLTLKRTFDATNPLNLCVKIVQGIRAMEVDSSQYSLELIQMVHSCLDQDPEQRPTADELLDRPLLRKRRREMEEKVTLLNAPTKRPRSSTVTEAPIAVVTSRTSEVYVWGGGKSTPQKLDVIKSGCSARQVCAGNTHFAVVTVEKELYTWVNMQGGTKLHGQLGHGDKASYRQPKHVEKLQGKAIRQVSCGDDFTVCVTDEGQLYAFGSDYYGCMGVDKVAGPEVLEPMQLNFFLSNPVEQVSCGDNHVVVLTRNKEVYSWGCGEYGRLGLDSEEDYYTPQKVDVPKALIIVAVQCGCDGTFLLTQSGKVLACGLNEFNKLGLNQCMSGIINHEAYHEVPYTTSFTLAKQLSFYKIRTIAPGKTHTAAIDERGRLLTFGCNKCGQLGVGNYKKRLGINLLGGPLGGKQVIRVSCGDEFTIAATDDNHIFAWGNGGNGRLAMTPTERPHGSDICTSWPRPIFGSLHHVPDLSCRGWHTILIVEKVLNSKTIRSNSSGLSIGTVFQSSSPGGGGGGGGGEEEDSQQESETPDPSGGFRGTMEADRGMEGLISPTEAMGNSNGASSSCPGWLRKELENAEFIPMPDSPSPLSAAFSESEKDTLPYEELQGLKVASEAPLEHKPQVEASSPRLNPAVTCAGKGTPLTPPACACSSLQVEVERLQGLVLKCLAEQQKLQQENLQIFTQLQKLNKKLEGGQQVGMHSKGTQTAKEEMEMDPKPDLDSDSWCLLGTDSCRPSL
Nature of the assay: Selectivity interaction (KinomeScan (DiscoverX)) EUB0001619a NEK9. The following applies: at 1 µM.

Assay [2] deals with Serine/threonine-protein kinase pim-1 (Homo sapiens, UniProt P11309). In words: Selectivity interaction (Kinase screening (Nanosyn)) EUB0000604a PIM1.
The target in assay [3] is Epidermal growth factor receptor (Homo sapiens, UniProt P00533). Nature of the assay: Selectivity interaction (Kinase panel (Invitrogen)) EUB0000639a EGFR. The following applies: at 200 nM.
In assay [4] the target is T2, Mitogen-activated protein kinase kinase kinase 5 (Homo sapiens) (UniProt Q99683).
T2 sequence (whole entry): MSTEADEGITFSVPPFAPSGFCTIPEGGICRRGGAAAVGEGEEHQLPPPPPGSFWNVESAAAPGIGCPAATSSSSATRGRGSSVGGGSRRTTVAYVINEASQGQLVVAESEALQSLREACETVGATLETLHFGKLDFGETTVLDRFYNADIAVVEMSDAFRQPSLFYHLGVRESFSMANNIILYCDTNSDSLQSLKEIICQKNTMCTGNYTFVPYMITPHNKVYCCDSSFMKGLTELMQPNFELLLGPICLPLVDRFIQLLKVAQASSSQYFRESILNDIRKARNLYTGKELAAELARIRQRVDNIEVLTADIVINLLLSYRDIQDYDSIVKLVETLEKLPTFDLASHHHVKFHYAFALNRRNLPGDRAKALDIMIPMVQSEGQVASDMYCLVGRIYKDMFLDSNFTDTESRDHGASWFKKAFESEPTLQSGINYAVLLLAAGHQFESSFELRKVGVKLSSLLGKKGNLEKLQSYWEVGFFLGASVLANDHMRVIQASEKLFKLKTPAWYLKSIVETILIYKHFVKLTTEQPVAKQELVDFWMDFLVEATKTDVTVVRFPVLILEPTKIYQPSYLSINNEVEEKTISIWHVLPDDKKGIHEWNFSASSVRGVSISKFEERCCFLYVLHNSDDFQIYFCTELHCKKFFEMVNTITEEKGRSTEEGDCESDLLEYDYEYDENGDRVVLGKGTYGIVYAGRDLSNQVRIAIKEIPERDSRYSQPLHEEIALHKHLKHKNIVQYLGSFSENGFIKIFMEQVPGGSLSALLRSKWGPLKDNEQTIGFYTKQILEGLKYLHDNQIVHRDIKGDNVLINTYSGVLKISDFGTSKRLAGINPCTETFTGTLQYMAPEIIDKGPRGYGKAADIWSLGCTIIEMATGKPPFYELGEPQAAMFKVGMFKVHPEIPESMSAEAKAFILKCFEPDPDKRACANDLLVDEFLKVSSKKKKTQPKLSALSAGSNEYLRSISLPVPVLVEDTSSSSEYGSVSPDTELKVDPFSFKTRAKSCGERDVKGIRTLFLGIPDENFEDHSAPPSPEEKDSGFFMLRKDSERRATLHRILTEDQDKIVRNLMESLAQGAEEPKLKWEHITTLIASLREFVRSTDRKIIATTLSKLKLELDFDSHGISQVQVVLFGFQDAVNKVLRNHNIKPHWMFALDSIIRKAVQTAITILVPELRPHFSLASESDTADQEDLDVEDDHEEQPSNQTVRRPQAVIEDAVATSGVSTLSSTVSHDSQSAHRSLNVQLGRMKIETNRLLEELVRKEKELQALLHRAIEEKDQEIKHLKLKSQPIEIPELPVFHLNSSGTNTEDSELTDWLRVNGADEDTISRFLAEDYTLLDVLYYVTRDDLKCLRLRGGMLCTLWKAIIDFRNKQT
In words: Selectivity interaction (ActivX KiNativ screen (kinase selectivity in THP-1 cell lysates)) EUB0000639a MAP3K5. The assay is classed as subcellular. As to conditions: lysate, at 0.2 µM.

Assay [5] has as its target LIM domain kinase 2 (Homo sapiens) (UniProt P53671). In words: Selectivity interaction (KinomeScan (DiscoverX)) EUB0000618a LIMK2. The following applies: at 10 µM.
The nature of assay [6]: Selectivity interaction (KinomeScan (DiscoverX)) EUB0000092b PKNB. As to conditions: at 10 µM.
Assay [7] addresses LIM domain kinase 2 (Homo sapiens) (UniProt P53671). Nature of the assay: Selectivity interaction (KinomeScan (DiscoverX)) EUB0001079a LIMK2. The following applies: at 1 µM.

LIM domain kinase 2 (Homo sapiens), sequence (P53671 whole entry, looked up, the tested form may be a part): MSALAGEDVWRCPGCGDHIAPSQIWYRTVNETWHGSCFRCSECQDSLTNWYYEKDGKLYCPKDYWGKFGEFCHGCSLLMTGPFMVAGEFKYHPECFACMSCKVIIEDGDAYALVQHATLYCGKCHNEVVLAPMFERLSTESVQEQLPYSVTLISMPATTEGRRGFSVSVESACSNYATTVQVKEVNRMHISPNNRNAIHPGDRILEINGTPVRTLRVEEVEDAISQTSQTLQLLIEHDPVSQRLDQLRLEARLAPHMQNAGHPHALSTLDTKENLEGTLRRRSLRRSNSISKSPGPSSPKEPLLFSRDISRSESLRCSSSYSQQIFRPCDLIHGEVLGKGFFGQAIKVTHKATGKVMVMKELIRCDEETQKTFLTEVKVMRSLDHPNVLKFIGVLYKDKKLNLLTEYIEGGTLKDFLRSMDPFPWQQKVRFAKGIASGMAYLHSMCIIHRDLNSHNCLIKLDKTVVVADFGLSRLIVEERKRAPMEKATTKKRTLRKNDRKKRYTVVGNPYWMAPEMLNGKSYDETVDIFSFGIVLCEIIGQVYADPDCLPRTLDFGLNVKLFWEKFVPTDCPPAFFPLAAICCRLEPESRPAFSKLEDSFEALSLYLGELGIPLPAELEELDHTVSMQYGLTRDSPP
Epidermal growth factor receptor, sequence (P00533 whole entry): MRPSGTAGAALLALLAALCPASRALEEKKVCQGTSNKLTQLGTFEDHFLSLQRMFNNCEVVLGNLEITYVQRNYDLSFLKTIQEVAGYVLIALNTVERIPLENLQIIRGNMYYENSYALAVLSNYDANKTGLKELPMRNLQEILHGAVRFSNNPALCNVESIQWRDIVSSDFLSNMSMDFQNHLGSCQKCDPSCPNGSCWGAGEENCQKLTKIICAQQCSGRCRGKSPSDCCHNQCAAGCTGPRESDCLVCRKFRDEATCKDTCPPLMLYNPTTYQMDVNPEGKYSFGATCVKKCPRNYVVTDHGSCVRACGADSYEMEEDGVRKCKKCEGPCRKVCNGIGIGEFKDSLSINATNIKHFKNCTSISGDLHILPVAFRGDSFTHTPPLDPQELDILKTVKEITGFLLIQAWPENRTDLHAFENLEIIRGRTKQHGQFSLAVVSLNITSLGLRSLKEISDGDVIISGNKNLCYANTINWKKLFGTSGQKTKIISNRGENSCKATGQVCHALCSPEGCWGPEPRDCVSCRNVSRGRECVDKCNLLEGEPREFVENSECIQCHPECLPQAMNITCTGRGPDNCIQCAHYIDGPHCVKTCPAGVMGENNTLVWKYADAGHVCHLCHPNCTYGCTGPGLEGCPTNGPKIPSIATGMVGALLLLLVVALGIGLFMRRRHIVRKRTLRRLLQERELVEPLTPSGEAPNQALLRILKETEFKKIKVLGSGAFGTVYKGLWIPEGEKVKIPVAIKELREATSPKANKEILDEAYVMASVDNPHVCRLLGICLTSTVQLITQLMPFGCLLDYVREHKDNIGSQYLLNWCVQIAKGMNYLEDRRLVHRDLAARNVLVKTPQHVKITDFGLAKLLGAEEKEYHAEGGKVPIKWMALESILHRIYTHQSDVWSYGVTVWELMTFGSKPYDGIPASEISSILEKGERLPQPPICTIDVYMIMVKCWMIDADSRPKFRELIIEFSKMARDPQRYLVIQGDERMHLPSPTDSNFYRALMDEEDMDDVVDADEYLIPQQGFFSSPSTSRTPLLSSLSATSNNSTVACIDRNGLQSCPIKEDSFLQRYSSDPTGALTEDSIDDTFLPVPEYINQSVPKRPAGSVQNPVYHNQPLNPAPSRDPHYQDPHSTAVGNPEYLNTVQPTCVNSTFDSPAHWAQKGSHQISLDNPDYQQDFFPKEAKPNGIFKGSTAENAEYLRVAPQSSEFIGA
Serine/threonine-protein kinase pim-1, sequence (P11309 whole entry, looked up): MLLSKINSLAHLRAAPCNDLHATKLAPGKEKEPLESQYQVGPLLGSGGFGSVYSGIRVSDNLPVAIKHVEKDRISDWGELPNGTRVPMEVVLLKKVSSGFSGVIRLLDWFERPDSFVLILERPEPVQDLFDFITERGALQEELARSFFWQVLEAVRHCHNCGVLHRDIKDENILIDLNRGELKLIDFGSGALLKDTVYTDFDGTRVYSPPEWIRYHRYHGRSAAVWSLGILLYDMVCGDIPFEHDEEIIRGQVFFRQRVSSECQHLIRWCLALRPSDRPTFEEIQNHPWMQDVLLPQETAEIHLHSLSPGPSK

`N#Cc1cccc(-c2c[nH]c3ncnc(N4CCOCC4)c23)c1`: in assay [1], the % of control amounted to 97%.
Turning to `Cc1cnc(Nc2ccc(F)cc2Cl)nc1-c1c[nH]c(C(=O)N[C@H](CO)c2cccc(Cl)c2)c1`, in assay [2], the % of inhibition stood at 0%.
With `CC[C@@H]1[C@H](F)C(=O)N[C@@H]1COc1nccc2cc(C(N)=O)c(OC)cc12` [ZIMLOVISERTIB], the % of inhibition in assay [3] was 1.86%; in assay [4] it was -11.2%.
Take `O[C@H]1CC[C@H](Nc2ncc3nc(Nc4c(F)cc(F)cc4F)n([C@H]4CCOC4)c3n2)CC1`: in assay [5], the % of control amounted to 29%.
For the compound `CCC(=O)N1CCN(c2ccc(-n3c(=O)ccc4cnc5ccc(-c6cnc7ccccc7c6)cc5c43)cc2C(F)(F)F)CC1`, the % of control in assay [6] came out at 64%.
Compound `Nc1cnc(N2CCc3cc(S(=O)(=O)Nc4c(F)cc(Cl)cc4F)cc(N4CCCC4=O)c32)nc1` [TP-020n] showed a % of control in assay [7] of 100%.
